How the values were obtained:
Type in all cases: cell-based, Camptotheca acuminata
[1] = system: camptothecin hydroxylases (CPTHs), Ca32236 (CPT 10-hydroxylase) and Ca32229 (CPT 11-hydroxylase); test: In vivo conversion in yeast expressing CPT hydroxylases (enzyme not distinguished); details: for acceptance as substrate (substrate specificity, FIG. 9): Ca32236 and Ca32229, different conversion rates; for conversion rate to hydroxylated product, scale-up: 50 μM substrate, after 48-hr inoculation, LCMS
From the text: (§1) For heterologous expression of Flag-tagged CYP450s in yeast (Saccharomyces cerevisiae), the full-length coding region of each CYP450 candidate was cloned between SpeI and NcoI restriction sites of MCS1 of the dual plasmid pESC-Leu2d with a cytochrome P450 reductase (CPR) in MCS2 (Dang et al 2018, Nature Chemical Biology 14, 760-763; Rot al 2008, BMC biotechnology 8, 83) yielding pESC-Leu2d::CYP/CPR using In-Fusion cloning system (Takara Clontech). The resulted pESC-Leu2d::CYP/CPR was transformed to the protease-deficient yeast strain YPL 154C:Pep4KO, and yeast harbouring pESC-Leu2d::CPR was used as the negative control. To optimize HCPT production, Δerg6 Δtop1 yeast double mutant strain SMY75-1.4A43 was used, which was previously generated to allow better penetration of, and improved resistance to, topoisomerase I inhibitors such as CPT. The conditions for yeast culture, microsome preparation, and immunoblot analysis are further described below.
(§2) For screening in vivo CPT oxidation activities, 10 μM CPT was fed to 100-μL, cultures of YPLC 154C:Pep4KO yeast transformed with the vector for 48 h. The culture volume can be scaled up to 2 L with the camptothecin concentration up to 50 μM to produce sufficient products for structural characterization and/or semi-synthesis of camptothecin derivatives. Standard in vitro assays were performed at 30 C for 1 hour in 100 μL of 100 mM HEPES-NaOH (pH 7.5) containing […] of total microsomal proteins, 50 μM substrate (FIGS. 6) and 250 μM NADPH on a gyratory shaker with agitation (750 rpm). Reactions were stopped by adding 800 μL methanol. The reaction mixture was extracted twice with methanol to precipitate and remove proteins. The supernatant was subjected to LC-MS/MS analysis
A calibration curve using camptothecin from 0-50 nM was made for quantification. Peaks areas of LC-MS chromatograms were calculated using MassLynx and TargetLynx from Waters and normalized. The amount of substrate consumption, product formation, conversion, and total product yield was quantified using corresponding calibration curves.
To generate sufficient amounts of HCPTs (10 and 11HCPT) and 7-ethyl-HCPT (7-ethyl-10 and 11HCPT) for the synthesis of topotecan, irinotecan and other compounds, enzymatic reactions was scaled up. The transgenic yeast strain was inoculated in 2 mL of synthetic complete medium lacking leucine (SC-Leu) containing 2% (w/v) glucose and cultured overnight at 30° C. and 275 rpm. The culture was subsequently diluted to an OD600 of 0.05 in SC-Leu supplemented with 2% (w/v) glucose and cultured for 16 hr. The yeast was then harvested and sub-cultured for 48 hr in YPA medium containing 2% (w/v) galactose, and 10% glycerol to induce the production of recombinant CYP450s. CPT or 7-ethyl-CPT substrate was fed directly into the culture to reach a final concentration of 50 μM as soon as the yeast was switched from SC-Leu to YPA medium. After 48-hr inoculation, a conversion rate of approximately 70% from CPT or 7-ethyl-CPT to its hydroxylated product was obtained and confirmed by LCMS analysis. The supernatant was collected by centrifugation at 4000 rpm, for 5 minutes. HCPT and 7-ethyl-HCPT were extracted out of reaction matrix by liquid-liquid extraction with ethyl acetate and chloroform, respectively. The solvent was removed by using a rotary evaporator to obtain crude HCPT and 7-ethyl-HCPT substrates for chemical synthesis to topotecan and irinotecan. HCPT and 7-ethyl-HCPT were purified by semi-preparative HPLC prior to the synthesis of derivatives.
A key advantage of the cytochrome P450 monooxygenase enzymes lies in the opportunity to functionalize the inert C—H bond and to further diversify the products to obtain valuable CPT-based scaffolds. […] First, the enzymatic conversion of CPT to HCPTs in yeast expressing CPT hydroxylases was optimized. The initial in vivo conversion rate maximized at 10% (FIG. 2), possibly because CPT is insoluble and the native yeast topoisomerase I is sensitive to CPT. […]

Ca32229/CPT11H = test: In vivo yeast biotransformation / substrate scope assay with CPT 11-hydroxylase; details: for Conversion rate (%): substrate converted to hydroxylated product, yeast in vivo assay, 1 L culture, calculated based on LCMS analysis; for acceptance as substrate / conversion: substrate scope, Example 4
From the text: as §1, §2
(§3) For routine yeast culture, the transgenic yeast strain was inoculated in 2 mL of synthetic complete (SC) medium lacking leucine (SC-Leu) containing 2% (w/v) glucose and cultured overnight at 30 °C and 250 rpm. The culture was subsequently diluted 100-fold to an OD600 of 0.05 in SC-Leu supplemented with 2% (w/v) glucose and cultured for 16 hr. Yeast was then harvested and sub-cultured for 24 hr in YPA medium containing 2% (w/v) galactose to induce the production of recombinant CYP450s. Yeast cells were harvested by centrifugation and lysed for 2 min using a micro-bead beater (VWR) and 500-μm diameter glass beads in TES (0.6 M sorbitol in TE) buffer. The resulting lysate was subsequently centrifuged at 10,000 g for 15 min at 4 C. The supernatant was then transferred to a new tube and centrifuged at 40,000 g for 60 min at 4 C. Finally, the pellet containing microsomes was resuspended with TEG buffer (20% (v/v) glycerol in TE). Expression of Ca32229 and Ca32236 was confirmed by immunoblot analysis of microsomal fractions prepared from S. cerevisiae cultures harbouring the pESC-Leu2d::CPR/Ca32229 and pESC-Leu2d::CPR/Ca32236 vectors using α-FLAG M2 antibodies (ThermoFisher Scientific) detectable with SuperSignal West Pico Chemiluminescent Substrate (ThermoFisher Scientific) to probe epitope-tagged recombinant proteins (FIG. 6).
(§4) Enzyme assays were analyzed by ultra-performance liquid chromatography (UPLC) on a Xevo TQ-S Cronos Triple Quadrupole Mass Spectrometry (Waters). For all studies, chromatography was performed on an XBridge BEH XP (10×2.1 mm, 1.7 μm) column at a flow rate of 0.6 mL.min−1. The column was equilibrated in solvent A (0.1% formic acid) and the following elution conditions were used: 0 min, 5% B (100% acetonitrile); from 0 to 3.5 min, 35% B; from 3.5 min to 3.75 min, 100% B; 3.75 min to 4.75, 100% B; 4.75 to 6 min, 5% B to re-equilibrate the column. Data were analyzed with MassLynx and TargetLynx (Waters).
(§5) A calibration curve using camptothecin from 0-50 nM was made for quantification. Peaks areas of LC-MS chromatograms were calculated using MassLynx and TargetLynx from Waters and normalized. […]

Ca32236/CPT10H = test: In vivo yeast biotransformation / substrate scope assay with CPT 10-hydroxylase; details: for Conversion rate (%): substrate converted to hydroxylated product, yeast in vivo assay, 1 L culture, calculated based on LCMS analysis
From the text: as §1, §2, §3, §4, §5

CCC1(O)C(=O)OCc2c1cc1n(c2=O)Cc2cc3cc(O)ccc3nc2-1 (stereo not drawn) [10-HydroxyCPT, 10-hydroxycamptothecin]
acceptance as substrate (substrate specificity, FIG. 9) [1]: accepted as substrates
Conversion rate (%) (Ca32229/CPT11H): 11%
acceptance as substrate (Ca32229/CPT11H): accepted
conversion (Ca32229/CPT11H): 7%

CC[C@@]1(O)C(=O)OCc2c1cc1n(c2=O)Cc2cc3ccccc3nc2-1 [CPT, camptothecin]
Conversion rate (%) (Ca32236/CPT10H): 67%
conversion rate to hydroxylated product, scale-up [1]: approximately 70%
initial in vivo conversion rate ([1]; CPT to HCPTs, before optimization): ≤ 10%
acceptance as substrate (substrate specificity, FIG. 9) [1]: accepted as substrates
conversion in SMY75-1.4A yeast strain ([1]; SMY75-1.4A (Δerg6 Δtop1) yeast strain): up to 67%
yield (conversion) after growth optimization ([1]; transgenic yeast in YPA medium with 2% galactose and 10% glycerol for 48 hrs): up to 40%
Conversion rate (%) (Ca32229/CPT11H): 62%

CCc1c2c(nc3ccccc13)-c1cc3c(c(=O)n1C2)COC(=O)[C@]3(O)CC [Compound 7-EthylCPT, 7-ethylcamptothecin]
Conversion rate (%) (Ca32236/CPT10H): 8%
acceptance as substrate (Ca32236/CPT10H; substrate scope, Example 4): accepted
conversion rate to hydroxylated product, scale-up [1]: approximately 70%
acceptance as substrate (substrate specificity, FIG. 9) [1]: accepted as substrates
Conversion rate (%) (Ca32229/CPT11H): 32%
acceptance as substrate (Ca32229/CPT11H): accepted

CC[C@@]1(O)C(=O)OCc2c1cc1n(c2=O)Cc2cc3c(N)cccc3nc2-1 [Compound 9-AminoCPT, 9-amino-camptothecin]
Conversion rate (%) (Ca32236/CPT10H): 9%
conversion rate (Ca32236/CPT10H; substrate scope, Example 4): 9%
acceptance as substrate (substrate specificity, FIG. 9) [1]: accepted as substrates
Conversion rate (%) (Ca32229/CPT11H): 9%
conversion (Ca32229/CPT11H): 9%

CCC1(O)C(=O)OCc2c1cc1n(c2=O)Cc2cc3ccc(O)cc3nc2-1 (stereo not drawn) [Compound 11HCPT, 11-hydroxycamptothecin]
acceptance as substrate (Ca32236/CPT10H; substrate scope, Example 4): not accepted

evodiamine
acceptance as substrate (substrate specificity, FIG. 9) [1]: accepted as substrates

— patent US20240084272A1, “CYTOCHROME P450 MONOOXYGENASES AND USES THEREOF” (THE UNIVERSITY OF BRITISH COLUMBIA, priority 2020, published 2024)
